This note sets out measurements from PubChem BioAssay AID2305 (GlaxoSmithKline (GSK), 2010).

Each structure is given as a SMILES string.

This test deals with P. falciparum 3D7 growth, pLDH absorbance. Kind of test: P. falciparum 3D7 growth inhibition, dose response, strain 3D7 (AID 2305).

The IC50 is the midpoint of a concentration-inhibition curve. The low end stands for inhibition by little substance, the high end for a need for much substance. `COc1cc2c(C3CCN(CC4CCN(C(=O)/C=C/c5ccc(Cl)c(Cl)c5)CC4)CC3)c[nH]c2cn1` returned an IC50 of 730 nM. In other words, the sub-micromolar range.
Under `COc1cc(OC)cc(-c2nn(-c3ccc([N+](=O)[O-])cc3C#N)c(=S)n2Cc2ccco2)c1` stands 580 nM.
In the case of `CC(C)N1CCN(C(=O)c2ccc(CNCCCN3CCN(c4ccccc4C(F)(F)F)CC3)s2)CC1`, the IC50 is 840 nM.
Under `Cc1ccc(Nc2nc(C)cc(Nc3cccc(NS(C)(=O)=O)c3)n2)cc1` stands 920 nM; under `CCC(NC[C@@H](O)[C@H](Cc1ccccc1)NC(=O)c1cc(C2CCCC2)cc(N2CCCC2=O)c1)c1cccc(Cl)c1` (some centres not stated), 40 nM.
Under `CC(C)(C)c1cc(C(=O)N2CCN(c3ncnc4ccsc34)CC2)n(Cc2ccccc2)n1` stands 910 nM; under `NOCCCCOc1ccccc1`, 180 nM.
For `Oc1ccc(CCNCCCCCCNCCc2ccc(Br)cc2)cc1O` the value was 1020 nM.
Compound `Oc1cc(Nc2ccnc3cc(-c4cccc(CN5CCOCC5)c4)ccc23)c(F)cc1Cl` displayed an IC50 of 210 nM.
For `CCn1c(-c2nonc2N)nc2c(-c3ccccc3)ncc(OCCCCNCCc3ncc[nH]3)c21` the value was 850 nM; for `Cc1cc(N)nc2ccc(-c3ccc(CCN)cc3)cc12`, 620 nM; for `CC(=O)Oc1cc(OCc2ccccc2)c(OC(C)=O)c(OCc2ccccc2)c1`, 410 nM.
`Cc1cc2nc(-c3ccc(/C=C/C(=O)NC4CCN(Cc5ccccc5)CC4)cc3)[nH]c2cc1C` displayed an IC50 of 590 nM. This IC50 and that of the compound before are within 1.5-fold of each other.
For `Cc1ccnc(Nc2nc(-c3ccccn3)cs2)c1` the value was 1000 nM.
Regarding `N#Cc1cccc(-c2nc(NCc3cccc(C(F)(F)F)c3)nn2-c2cccc(C(F)(F)F)c2)c1`, the IC50 came to 590 nM.
`O=C(NCCCCN1CCN(c2cccc3c2OCCO3)CC1)c1ccc(NC(=O)c2cc(Cl)cc(Cl)c2)cc1`: the IC50 is 220 nM. Against the preceding compound, the IC50 is about 2.7-fold lower.
Under `COc1ccc(C(=O)N2CCC3(CC2)C(=O)N(CC(=O)NCC2CCCCC2)CN3c2ccccc2)cc1` stands 270 nM.
In turn, `COc1cccc(C2=CC(c3ccccc3)n3ncc(C(=O)Nc4ccc(Cl)cc4)c3N2)c1` (configuration not stated) had an IC50 of 1060 nM.
Compound `Cc1ccccc1C(O)CNc1ccnc(Nc2cccc(C#N)c2)n1` (configuration not stated) gave an IC50 of 880 nM. This IC50 and that of the compound before are within 1.5-fold of each other.
As for `Cc1cc(NCc2ccccc2)nc2cc(O)ccc12`, the 50% inhibitory concentration (IC50) is 780 nM. This IC50 and that of the compound before are within 1.5-fold of each other.
In the case of `CCCOc1ccccc1-c1nc2[nH]c3c(c2c(=O)[nH]1)CCN(C)C3`, the 50% inhibitory concentration (IC50) was determined as 370 nM.
As for `Fc1cccc(C=NNc2ccnc3cc(Cl)ccc23)c1`, the IC50 was 530 nM. The IC50 values of the last two compounds are within 1.5-fold of each other.
The compound `COc1ccc(CNc2ccc3nc(N)nc(N)c3c2)cc1` had an IC50 of 170 nM. This IC50 lies about 3.1-fold lower than the previous one.
`Cc1nnc(-c2ccc3ccccc3c2)c2cn(-c3cccc([N+](=O)[O-])c3)nc12` came in with an IC50 of 990 nM. Against the preceding compound, the IC50 is about 5.8-fold higher.
Compound `CC(C)Cc1cn(-c2nc(-c3nc4ccccc4[nH]3)cs2)c2cc(Cl)ccc12` gave an IC50 of 480 nM.
Compound `CCN(CCCN1CCCCC1)c1cc(C)nc(Nc2cccc(OC(F)(F)F)c2)n1` showed an IC50 of 230 nM.
For the compound `O=C(Nc1cccc(Oc2ccccc2)c1)N[C@H]1CCN(Cc2ccc(OCCCN3CCCCC3)cc2)C1`, the IC50 worked out at 720 nM.
Under `CN(C(=O)/C=C/c1ccccc1F)C1CCN(CCCCCNC(=O)/C=C/c2ccc(Cl)c(Cl)c2)CC1` stands 510 nM.
In the case of `CCN1CCC(N2CCC(C(=O)Nc3cccc(-c4cccc(Cl)c4)c3)CC2)CC1`, the IC50 was determined as 1080 nM.
As to `CCCc1cc(=O)[nH]c(-n2nc(C)cc2NC(=O)CC(c2ccccc2)c2ccccc2)n1`, the IC50 came out at 620 nM.
Under `O=C(Nc1cccc([N+](=O)[O-])c1)Nc1ccc(Cl)c(C(F)(F)F)c1` stands 1120 nM; under `COc1cccc(C(=O)Nc2ccc(Nc3nc(C)cc(N(C)C)n3)cc2)c1OC`, 1020 nM.
Regarding `COc1ccc(CCNCCCCCNCCc2ccc(Cl)cc2)cc1OC`, the IC50 worked out at 740 nM.
`O=C(COc1ccc(C(=O)c2ccccc2)cc1)Nc1nccs1` showed an IC50 of 890 nM.
The compound `CCOc1ccccc1CCNC(C)Cc1ccc(C(=O)Nc2ccc(CC(C)NCCc3cccc(Cl)c3)cc2)cc1` (configuration not stated) yielded an IC50 of 540 nM.
`Cc1cc(N(C)C)nc(Nc2ccc(NC(=O)c3ccc(F)cc3)cc2)n1` had an IC50 of 710 nM.
As for `O=C(Nc1cccc(-c2ccc(-c3nc4ccccc4[nH]3)cc2)c1)Nc1ccc2c(c1)OCO2`, the IC50 was 670 nM. This IC50 and that of the compound before are within 1.5-fold of each other.
For `O=C(/C=C/c1ccc(Cl)cc1)NCCCCCN1CCCC(C(=O)Nc2ccc(Cl)c(Cl)c2)C1` (configuration not stated) the value was 830 nM.
Under `Cc1cc(Nc2ncc(C#N)c(Nc3ccccc3C(N)=O)n2)ccc1N1CCN(C)CC1` stands 10 nM; under `Cc1cc(NCCC(=O)Nc2ccccc2)nc(NCCc2ccc(F)cc2)n1`, 1130 nM; under `O=C(Cn1c(CCc2cccc(F)c2F)nc(=O)c2ccccc21)N(CCCN1CCCCC1)Cc1ccc(-c2ccc(C(F)(F)F)cc2)cc1`, 760 nM.
For `COc1ccccc1CCNc1nccc(N[C@@H](Cc2ccccc2)C(=O)NCc2cccs2)n1` the value was 870 nM; for `CCc1ccc(-n2cc(C(=O)c3cc(Br)ccc3O)cc(C#N)c2=O)cc1`, 800 nM.
`Oc1ccc(OCc2ccccn2)cc1` yielded a 50% inhibitory concentration (IC50) of 980 nM.
For `COc1ccc(-c2cncc(-c3ccc(OC)c(OC)c3)n2)cc1OC` the value was 780 nM; for `O=C1CC(C(=O)Nc2cccc(-c3cccc(-c4nc5ccccc5[nH]4)c3)c2)c2ccccc2N1` (configuration not stated), 980 nM; for `OC(CNC1CCCCC1)Cn1c2ccccc2c2ccccc21` (configuration not stated), 990 nM.
`CC1CN=C(c2ccc(NC(=O)c3ccc(C(=O)Nc4ccc(C5=NCC(C)N5)cc4)cc3)cc2)N1` (configuration not stated) had an IC50 of 30 nM.
As for `NC(=O)c1ccc(NCC(=O)Nc2cccc(-c3cccc(-c4nc5ccccc5[nH]4)c3)c2)cc1`, the IC50 came to 990 nM.
For `COc1ccc(CNC(=O)NC2CCN(c3ccnc(Nc4ccc(F)cc4)n3)CC2)cc1` the value was 1050 nM.
Under `CCOC(=O)c1ccc(NC(=O)Nc2ccc(-c3cccc(-c4nc5ccc(F)cc5[nH]4)c3)cc2)cc1` stands 120 nM.
For `COc1cccc(CCc2nc3c(N4CCC(Cc5ccccc5)CC4)cccc3n2CC2CNCCO2)c1` (configuration not stated) the value was 800 nM; for `CC[C@H](C)CNC(=O)c1ccnc(-c2cccc(CN(C)C3CCN(C)CC3)c2)c1`, 900 nM.
`COc1cccc(C(=O)Nc2sc3c(c2C(N)=O)CCCC3)c1OC`: the IC50 was found to be 930 nM.
The compound `Cc1[nH]c(C)c(-c2ccc(-c3cc(C(F)(F)F)cc(C(F)(F)F)c3)nc2)c(=O)c1Br` registered an IC50 of 80 nM.
For `Cc1cc(NCCCCCCNc2cc(C)nc3c(C)cccc23)c2cccc(C)c2n1` the value was 410 nM.
As for `Cn1c(-c2ccccc2)cc2c3c(=O)cc(C(F)(F)F)[nH]c3ccc21`, the IC50 was found to be 850 nM.
Compound `Cc1cc(N2Cc3ccccc3C2)nc(Nc2cccc(C#N)c2)n1` yielded an IC50 of 170 nM. Against the preceding compound, the IC50 is about 5-fold lower.
For `O=C(CCOc1ccccc1)NCC1CCCO1` (configuration not stated), the IC50 is 1000 nM.
For `COc1cc(C(=O)NCCCN2CCN(c3cccc(Cl)c3)CC2)ccc1-c1cc2cc(Cl)c(Cl)cc2[nH]1` the value was 470 nM; for `CCOc1cc(C(=O)NCc2ccc(Cl)c(Cl)c2)ccc1-c1nc2ccc(Cl)cc2[nH]1`, 800 nM; for `CS(=O)(=O)c1ccc(CCNCc2ccc(-c3ccc(CN(C(=O)C4CC(=O)c5ccccc54)C4Cc5ccccc5C4)cc3)nc2)cc1` (configuration not stated), 860 nM.
Consider `O=C(Nc1cccnc1)c1ccc(-c2cc3ccncc3cc2OC2CCNCC2)s1`, for which the IC50 is 880 nM.
As to `CCNc1cc(C)nc(Nc2ccc(NC(=O)c3ccccc3Br)cc2)n1`, the IC50 is 740 nM.
Under `CC(C)C[C@H](NC(=O)[C@H](Cc1ccccc1)NC(=O)CCN1C(=O)COc2ccc(C(=O)O)cc21)C(=O)NC(CC1CCCCC1)C(O)CC(=O)NCCCn1ccnc1` (some centres not stated) stands 970 nM; under `CCOC(=O)NC1=NC(C)(C)N(OCc2cccc3c2ccc2ccccc23)C(NC(=O)OCC)=N1`, 170 nM; under `O=[N+]([O-])c1ccc(Nc2nc(NN=Cc3cccc(O)c3)nc(N3CCCC3)n2)cc1`, 1080 nM.
Under `NC(=O)C1CCN(Cc2cccc(-c3cccc(-c4nc5ccc(F)cc5[nH]4)c3)c2)CC1` stands 850 nM.
As to `C=CCn1c(Sc2ccc(C#N)c([N+](=O)[O-])c2)nnc1-c1cc(OC)cc(OC)c1`, the IC50 stood at 440 nM.
In turn, `CCCCN(Cc1cccc(C(F)(F)F)c1Cl)c1ccc(C(O)(C(F)(F)F)C(F)(F)F)cc1` registered an IC50 of 960 nM.
`O=C(Nc1cccc(N2CCC(NCCCn3ccnc3)CC2)c1)c1cccc(C(F)(F)F)c1` displayed an IC50 of 1110 nM.
For `O=C(C1CCCC1)N1CCOC(CCN2CCC(c3ccccc3)CC2)(c2ccc(Cl)c(Cl)c2)C1` (configuration not stated) the value was 940 nM; for `COc1cccc(N(CCCN2C(=O)c3cccc4cccc(c34)C2=O)C(=O)c2ccccc2C)c1`, 790 nM.
Consider `CCCCCCN1CCC(NCc2ccc(Cl)cc2)CC1`, for which the IC50 came out at 850 nM.
Under `CC(C)CCCC(C)(C)NC[C@@H](O)[C@H](Cc1ccccc1)NC(=O)c1cccc(OCC2CC2)c1` stands 840 nM; under `O=C(N[C@H]1CCN(Cc2ccc(OC3CCN(Cc4ccccc4)CC3)cc2)C1)c1ccc(Cl)c(Cl)c1`, 730 nM; under `Cc1ccc(NC(=O)c2ccc3ncccc3c2)cc1OC1CCN(Cc2ccco2)C1` (configuration not stated), 1250 nM.
Compound `O=C(Nc1cccc(F)c1)NC1CCN(c2ccnc3cc(Cl)ccc23)C1` (configuration not stated) returned an IC50 of 190 nM.
For `O=c1cc(NCCCNCc2scc3c(Cl)cc(C(F)(F)F)nc23)[nH]c2ccccc12` the value was 750 nM; for `CCCCCCOc1ccc2ccccc2c1CNCCCCCCNCc1c(OCCCCCC)ccc2ccccc12`, 1060 nM; for `COc1ccc2c(NN=Cc3ccccc3F)cc(C)nc2c1`, 1000 nM.
For `O=C(NCCCCN1CCC(c2c[nH]c3ccccc23)CC1)c1sc(-c2ccc(C(F)(F)F)cc2)nc1CO` the value was 1200 nM.
With `COc1cccc(NC(=O)Nc2cc(-c3ccc4[nH]ncc4c3)cc3c2CNC3=O)c1`, the IC50 amounted to 120 nM.
For `O=S(=O)(Nc1cccc(CCN2CCC(N3CCCCC3)CC2)c1)c1ccc(Oc2ccccc2)cc1` the value was 770 nM; for `COC(=O)c1sc(-c2ccc(Cl)cc2)cc1N(CCCN1CCC(N2CCCCC2)CC1)S(=O)(=O)c1ccc(C)cc1`, 740 nM.
For `CCCN(CCC)S(=O)(=O)c1ccc(C(=O)Nc2nc3ccc(-c4cc(=O)[nH]c(Nc5ccccc5Cl)n4)cc3[nH]2)cc1` the value was 590 nM; for `COc1ccc(CN(C)Cc2ccc(NC(=O)c3cccc4c(=O)c5cccc(C)c5[nH]c34)cc2)cc1OC`, 840 nM.
